Measurements published in patent US20030004157A1, “Use of NK-1 receptor antagonists against benign prostatic hyperplasia” (priority 2001, published 2003).

Tested on: Beagle dogs
Experiment: 39-week toxicity study in the dog
Type: in vivo
Conditions: 39 weeks; for PROSTATE diff. % vs. control (relative organ weight) / PROSTATE per 100 g BW relative (mean relative organ weight) / TESTES diff. % vs. control (relative organ weight) / TESTES per 100 g BW relative (mean relative organ weight) / PROSTATE absolute (mean absolute organ weight) / TESTES absolute (mean absolute organ weight): male Beagle dogs, oral gavage, SEDDS formulation; for PROSTATE absolute (mean absolute organ weight) / TESTES absolute (mean absolute organ weight): in g (unit assumed); for reduced weights of the prostate gland compared to the control / microscopic changes of the prostate (animals affected): males
Method: In a nine-month study four groups of Beagle dogs (4 animals/gender/group; 5-6 months of age at study start) received oral doses (gavage) of 0 (placebo), 6, 20 and 60 mg/kg/d of 2-(3,5-bis-trifluoromethyl-phenyl)-N-methyl-N-(6-morpholin-4-yl-4-o-tolyl-pyridin-3-yl)-isobutyramide as a SEDDS formulation for 39 weeks. The following variables were investigated: clinical signs, body weights, food consumption, ophthalmoscopy before and at the end of the study, electrocardiography, heart rate, toxicokinetics at different time-points, clinical pathology (hematology, biochemistry, urinalysis) in 3-months intervals, necropsy and tissue preservation, organ weights and histopathology.
Mean absolute organ weights were adjusted to 100 g of the mean terminal body weights=>mean relative organ weights.
Mean relative organ weights were compared to the corresponding control=>% deviation.

## Cc1ccccc1-c1cc(N2CCOCC2)ncc1N(C)C(=O)C(C)(C)c1cc(C(F)(F)F)cc(C(F)(F)F)c1 [2-(3,5-bis-trifluoromethyl-phenyl)-N-methyl-N-(6-morpholin-4-yl-4-o-tolyl-pyridin-3-yl)-isobutyramide]
6, 20 and 60 mg/kg/d oral
  abnormalities in organ systems other than prostate: no overt abnormalities in any other organ system
  liver changes: Mild changes in the liver (hepatocyte hypertrophy with slightly increased organ weights)
6 mg/kg/d
  PROSTATE diff. % vs. control (relative organ weight): −24%
  PROSTATE per 100 g BW relative (mean relative organ weight): 0.059
  TESTES diff. % vs. control (relative organ weight): +1%
  TESTES per 100 g BW relative (mean relative organ weight): 0.1803
  PROSTATE absolute (mean absolute organ weight): 8.066
  TESTES absolute (mean absolute organ weight): 24.577
20 mg/kg/d
  PROSTATE diff. % vs. control (relative organ weight): −37%
  PROSTATE per 100 g BW relative (mean relative organ weight): 0.049
  TESTES diff. % vs. control (relative organ weight): +6%
  TESTES per 100 g BW relative (mean relative organ weight): 0.1804
  PROSTATE absolute (mean absolute organ weight): 6.413
  TESTES absolute (mean absolute organ weight): 23.432
60 mg/kg/d
  PROSTATE diff. % vs. control (relative organ weight): −58%
  PROSTATE per 100 g BW relative (mean relative organ weight): 0.033
  TESTES diff. % vs. control (relative organ weight): +9%
  TESTES per 100 g BW relative (mean relative organ weight): 0.1853
  PROSTATE absolute (mean absolute organ weight): 4.429
  TESTES absolute (mean absolute organ weight): 24.753
6 mg/kg/d oral
  reduced weights of the prostate gland compared to the control: insignificant trend
20 mg/kg/d oral
  microscopic changes of the prostate (animals affected): most
  reduced weights of the prostate gland compared to the control: 37%
60 mg/kg/d oral
  microscopic changes of the prostate (animals affected): all males
  reduced weights of the prostate gland compared to the control: 58%
